According to patent US11834698B2, “Process for determining enzyme activity in a cell by activity-based reporter gene technology (ABRGT)” (INDIAN INSTITUTE OF SCIENCE EDUCATION AND RESEARCH, priority 2018, dated 2023):
Several values for one entry are separate records, joined by “and”; a condition that tells them apart may be missing. Equal values may be shown once.

Columns and labels:
[1] = target: T1, recombinant human caspase-3 His tagged enzyme (rcaspase-3) (Homo sapiens, UniProt P42574); assay: In-gel fluorescence labelling of purified rcaspase-3 by fABP; format: binding
T1 construct: The purified rcaspase-3 was confirmed with the two peaks obtained at 12939 and 16598 Da; His tag; made in house
T1 sequence (P42574 29-175 limits assumed): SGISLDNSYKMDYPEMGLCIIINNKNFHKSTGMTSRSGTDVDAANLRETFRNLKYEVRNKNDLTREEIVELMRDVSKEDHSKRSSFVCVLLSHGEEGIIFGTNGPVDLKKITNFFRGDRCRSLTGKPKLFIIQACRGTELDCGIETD
T1 sequence (P42574 176-277 limits assumed): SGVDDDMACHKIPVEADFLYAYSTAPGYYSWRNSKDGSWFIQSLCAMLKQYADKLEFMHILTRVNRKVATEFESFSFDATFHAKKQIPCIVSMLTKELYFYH
Method: FIG. 4 depicts (a) labelling of purified rcaspase-3 (2 μM) by probe 1 at a concentration of 100, 500 and 2000 nM. (b) integrated band intensity values. (c) The specificity of probe 1 (1 μM) to label active enzyme (500 nM); (lane 1: active rcaspase-3 in the presence of probe 1, lane 2: thermally denatured rcaspase-3 in the presence of probe 1.
To establish AbRGT, the specific activation of caspase-3 GFPspark was monitored, in the apoptosis signalling pathway, using fABP, Rhodamine-VAD-fluoromethyl ketone (Rh-VAD-FMK) probe (probe 1) (Micale et al., JACS, 2004) [FIG. 2(a)] in MCF-7 cells. Here, rhodamine is the fluorescent tag, VAD is the peptide recognition sequence for caspases and FMK is the reactive warhead for targeting pan-caspases. Before monitoring the specific caspase-3 activation in the native cellular environment, the active-site labelling of probe 1 to the caspase-3 enzyme in in vitro conditions was first validated. The recombinant human caspase-3 His tagged enzyme (rcaspase-3) was expressed and purified using Ni-NTA column chromatography (Stennicke et al., Methods, 1999). […] The labelled enzyme samples were then separated on a 12% SDS-PAGE gel and were visualized using an in-gel fluorescence scanner. […]

[2] = test system: enhanced green fluorescent protein (EGFP); assay: EGFP control for random GFP-rhodamine interaction in MCF-7 cells; format: cell-based; conditions: MCF-7, EGFP plasmid, STS 1 μM 4 h, labelled with probe 1
Method: FIG. 2 depicts (a) a schematic representation of AbRGT in determining the specific activation of caspase-3 GFPspark tagged enzyme by FRET effect utilizing Rh-VAD-FMK (probe 1). (b) The fluorescence signal was collected in GFP, FRET and Rhodamine (Rh) channels. MCF-7 cells transfected with caspase-3 GFPspark treated with (i) 1 μM STS for 4 h or (ii) 1 μg/ml TRAIL for 5 h and then labelled with probe 1. (iii) Un-transfected MCF-7 cells were treated with 1 μM STS for 4 h and then labelled with the probe 1. MCF-7 cells transfected with enhanced green fluorescent protein (EGFP) plasmid treated (iv) with 1 μM STS or (v) without STS for 4 h and then labelled with probe 1, scale bar, 10 a.u. […] Images for GFP and rhodamine fluorescence signals were collected in GFP and FRET channels pre- and post-bleaching of rhodamine signals. (d) Quantification of change in GFP fluorescence intensity after rhodamine photo-bleaching in both unbleached control region and rhodamine bleached region, region of interest (ROI), area under the white square. […]
To rule out that the obtained FRET signal in [FIG. 2b (i)] is not because of random physical interaction between GFPspark and rhodamine dye, MCF-7 cells were transfected with a plasmid encoding for enhanced green fluorescent protein (EGFP). […] The calculated FRET efficiency for (n=15 cells) is 35±1%. […] The calculated FRET efficiency was 35% [FIG. 7(b)]. […]

caspase-3 GFPspark [3] = target: T2, caspase-3 GFPspark (Homo sapiens, UniProt P42574); assay: AbRGT FRET imaging / acceptor photobleaching, caspase-3 GFPspark in HeLa cells; format: cell-based; set-up: host or cells: HeLa; conditions: STS 1 μM 10 h, probe 1 μM
T2 sequence (P42574 29-175 limits assumed): T1 sequence (P42574 29-175 limits assumed)
T2 sequence (P42574 176-277 limits assumed): T1 sequence (P42574 176-277 limits assumed)

caspase-3 GFPspark [4] = target: T2, caspase-3 GFPspark; assay: AbRGT FRET imaging / acceptor photobleaching, caspase-3 GFPspark in HEK-293 cells; format: cell-based; set-up: host or cells: HEK-293; conditions: HEK-293, STS 1 μM 10 h, probe 1 μM

**Q.** “Rhodamine-VAD-fluoromethyl ketone [probe 1]” was tested. Which “fluorescence signal after thermal denaturation of rcaspase-3 before labelling” value ([1]; probe 1 μM, enzyme 500 nM) did it give?
**A.** completely abolished

**Q.** And the “concentration at which probe effectively labelled rcaspase-3” value ([1]; rcaspase-3 2 μM, probe 100, 500, 2000 nM, SDS-PAGE in-gel fluorescence)?
**A.** ≤ 100 nM

**Q.** And the “fluorescence signal in FRET channel, EGFP transfected cells” value [2]?
**A.** no fluorescence signal was observed

**Q.** And the “calculated FRET efficiency” value (caspase-3 GFPspark [3])?
**A.** 32±2%

**Q.** What about the “rise in GFP intensity in the ROI” value (caspase-3 GFPspark [3]; n=15 cells) of the same substance?
**A.** 52±5 a.u.

**Q.** And the “calculated FRET efficiency” value (caspase-3 GFPspark [4])?
**A.** 32.5±2% and 33±2%

**Q.** And the “rise in GFP intensity in the ROI” value (caspase-3 GFPspark [4])?
**A.** 72 a.u.
